Legend:
CHK1 = CHK1 (Homo sapiens (Human), UniProt O14757); experiment: CHK1 inhibitory activity test (IMAP TR-FRET)
ES-2 cells = experiment: Cell growth suppression experiment; assay type: cell-based
Protocol: ES-2 cells were obtained from the American Type Culture Collection (ATCC). These cells were cultured at 37° C. in the presence of 5% CO2 in a 10% fetal bovine serum, 1% penicillin/streptomycin containing McCoy's 5a medium.
500 cells were seeded for each well in a 384-well plate, and the evaluated compound was added so that the final concentration of DMSO would be 0.1% to culture the cells for 2 days. After completion of the culture, the cell viability rate was calculated using CellTiter-Glo® 3D Reagent (Promega, G968B).
The results of cell growth suppression test on representative compounds of the present disclosure are listed in the following table based on the ranking of I, IT, III, IV, and V (1000 nM<I, 1000 nM>TI>300 nM, 300 nM>III>100 nM, 100 nMV>IV>30 nM, 30 nM>V).

Sequence of CHK1 (O14757 whole entry): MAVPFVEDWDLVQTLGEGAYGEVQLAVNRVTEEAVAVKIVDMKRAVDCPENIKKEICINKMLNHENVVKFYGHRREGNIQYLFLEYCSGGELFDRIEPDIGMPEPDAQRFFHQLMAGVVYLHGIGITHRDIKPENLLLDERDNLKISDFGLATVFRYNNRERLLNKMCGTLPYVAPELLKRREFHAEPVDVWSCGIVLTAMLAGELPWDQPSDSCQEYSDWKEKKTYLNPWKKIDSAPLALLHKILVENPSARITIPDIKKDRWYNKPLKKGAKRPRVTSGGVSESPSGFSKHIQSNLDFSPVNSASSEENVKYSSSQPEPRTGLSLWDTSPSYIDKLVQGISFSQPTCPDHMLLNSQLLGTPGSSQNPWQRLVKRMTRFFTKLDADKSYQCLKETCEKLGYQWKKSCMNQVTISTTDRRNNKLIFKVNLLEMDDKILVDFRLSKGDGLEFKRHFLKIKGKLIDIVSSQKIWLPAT

Row | SMILES | IC50 (CHK1) | effect of suppressing CHK1 activity compared with prexasertib (CHK1) | cell growth suppression effect compared with prexasertib (ES-2 cells)
1 | COc1cc(Cl)nc(OCCCN)c1-c1cc(Nc2cnc(C#N)cn2)n[nH]1 [Example 2, 5-({5-[2-(3-aminopropoxy)-6-chloro-4-methoxypyridin-3-yl]-1H-pyrazol-3-yl}amino)pyrazine-2-carbonitrile] | 0.22 nM | more potent effect of suppressing CHK1 activity than prexasertib | 
2 | COc1cncc(OCCCN)c1-c1cc(Nc2cnc(C#N)cn2)n[nH]1 [Example 3, 5-({5-[3-(3-aminopropoxy)-5-methoxypyridin-4-yl]-1H-pyrazol-3-yl}amino)pyrazine-2-carbonitrile] | 0.22 nM | more potent effect of suppressing CHK1 activity than prexasertib | excellent cell growth suppression effect that is equivalent to that of prexasertib
3 | COc1nccc(OCCCN)c1-c1cc(Nc2cnc(C#N)cn2)n[nH]1 [Example 4, 5-({5-[4-(3-aminopropoxy)-2-methoxypyridin-3-yl]-1H-pyrazol-3-yl}amino)pyrazine-2-carbonitrile] | 0.23 nM | more potent effect of suppressing CHK1 activity than prexasertib | excellent cell growth suppression effect that is equivalent to that of prexasertib
4 | COc1nccc(OCC2(C)CNC2)c1-c1cc(Nc2cnc(C#N)cn2)n[nH]1 [Example 6, 5-[(5-{2-methoxy-4-[(3-methylazetidin-3-yl)methoxy]pyridin-3-yl}-1H-pyrazol-3-yl)amino]pyrazine-2-carbonitrile] | 0.27 nM | more potent effect of suppressing CHK1 activity than prexasertib | excellent cell growth suppression effect that is equivalent to that of prexasertib
5 | COc1nccc(OCC2(O)CNC2)c1-c1cc(Nc2cnc(C#N)cn2)n[nH]1 [Example 7, 5-[(5-{4-[(3-hydroxyazetidin-3-yl)methoxy]-2-methoxypyridin-3-yl}-1H-pyrazol-3-yl)amino]pyrazine-2-carbonitrile] | 0.21 nM | more potent effect of suppressing CHK1 activity than prexasertib | 
6 | COc1cncc(OCC[C@@H](C)N)c1-c1cc(Nc2cnc(C#N)cn2)n[nH]1 [Example 9, 5-[(5-{3-[(3R)-3-aminobutoxy]-5-methoxypyridin-4-yl}-1H-pyrazol-3-yl)amino]pyrazine-2-carbonitrile] | 0.24 nM | more potent effect of suppressing CHK1 activity than prexasertib | 
7 | COc1cncc(OCC[C@H](C)N)c1-c1cc(Nc2cnc(C#N)cn2)n[nH]1 [Example 10, 5-[(5-{3-[(3S)-3-aminobutoxy]-5-methoxypyridin-4-yl}-1H-pyrazol-3-yl)amino]pyrazine-2-carbonitrile] | 0.3 nM | more potent effect of suppressing CHK1 activity than prexasertib | 
8 | COc1cncc(OCC2(CN)CC2)c1-c1cc(Nc2cnc(C#N)cn2)n[nH]1 [Example 11, 5-{[5-(3-{[1-(aminomethyl)cyclopropyl]methoxy}-5-methoxypyridin-4-yl)-1H-pyrazol-3-yl]amino}pyrazine-2-carbonitrile] | 0.18 nM | more potent effect of suppressing CHK1 activity than prexasertib | excellent cell growth suppression effect that is equivalent to that of prexasertib
9 | COc1cncc(OC[C@@H](O)CN)c1-c1cc(Nc2cnc(C#N)cn2)n[nH]1 [Example 14, 5-[(5-{3-[(2S)-3-amino-2-hydroxypropoxy]-5-methoxypyridin-4-yl}-1H-pyrazol-3-yl)amino]pyrazine-2-carbonitrile] | 0.22 nM | more potent effect of suppressing CHK1 activity than prexasertib | 
10 | COc1ccnc(OCCCN)c1-c1cc(Nc2cnc(Cl)cn2)n[nH]1 [Example 15, N-{5-[2-(3-aminopropoxy)-4-methoxypyridin-3-yl]-1-H-pyrazol-3-yl}-5-chloropyrazin-2-amine] | 0.26 nM | more potent effect of suppressing CHK1 activity than prexasertib | excellent cell growth suppression effect that is equivalent to that of prexasertib
11 | COc1cncc(OCC2CNC2)c1-c1cc(Nc2cnc(C#N)cn2)n[nH]1 [Example 18, 5-({5-[3-(azetidin-3-yl)methoxy-5-methoxypyridin-4-yl]-1H-pyrazol-3-yl}amino)pyrazine-2-carbonitrile] | 0.51 nM | more potent effect of suppressing CHK1 activity than prexasertib | 
12 | COc1cncc(O[C@@H]2CCC[C@H](N)C2)c1-c1cc(Nc2cnc(C#N)cn2)n[nH]1 [Example 19, 5-{[5-(3-{[(1R,3S)-3-aminocyclohexyl]oxy}-5-methoxypyridin-4-yl)-1H-pyrazol-3-yl]amino}pyrazine-2-carbonitrile] | 0.26 nM | more potent effect of suppressing CHK1 activity than prexasertib | excellent cell growth suppression effect that is equivalent to that of prexasertib
13 | COc1cncc(OC[C@H]2CCNC2)c1-c1cc(Nc2cnc(C#N)cn2)n[nH]1 [Example 21, (S)-5-[(5-{3-methoxy-[5-(pyrrolidin-3-yl)methoxy]pyridin-4-yl}-1H-pyrazol-3-yl)amino]pyrazine-2-carbonitrile] | 0.29 nM | more potent effect of suppressing CHK1 activity than prexasertib | excellent cell growth suppression effect that is equivalent to that of prexasertib
14 | COc1ncnc(OCC2(CN)CC2)c1-c1cc(Nc2cnc(C#N)cn2)n[nH]1 [Example 23, 5-{[5-(4-{[1-(aminomethyl)cyclopropyl]methoxy}-6-methoxypyrimidin-5-yl)-1H-pyrazol-3-yl]amino}pyrazine-2-carbonitrile] | 0.79 nM |  | excellent cell growth suppression effect that is equivalent to that of prexasertib
15 | N#Cc1cnc(Nc2cc(-c3c(OCF)cncc3OCCCN)[nH]n2)cn1 [Example 24, 5-({5-[3-(3-aminopropoxy)-5-(fluoromethoxy)pyridin-4-yl]-1H-pyrazol-3-yl}amino)pyrazine-2-carbonitrile] | 0.3 nM | more potent effect of suppressing CHK1 activity than prexasertib | 
16 | COc1cncc(OCC2(C)CNC2)c1-c1cc(Nc2cnc(C#N)cn2)n[nH]1 [Example 25, 5-[(5-{3-methoxy-5-[(3-methylazetidin-3-yl)methoxy]pyridin-4-yl}-1H-pyrazol-3-yl)amino]pyrazine-2-carbonitrile] | 0.74 nM |  | excellent cell growth suppression effect that is equivalent to that of prexasertib
17 | COc1cncc(OCC2(C(F)F)CNC2)c1-c1cc(Nc2cnc(C#N)cn2)n[nH]1 [Example 26, 5-{[5-(3-{[3-(difluoromethyl)azetidin-3-yl]methoxy}-5-methoxypyridin-4-yl)-1H-pyrazol-3-yl]amino}pyrazine-2-carbonitrile] | 0.14 nM | more potent effect of suppressing CHK1 activity than prexasertib | excellent cell growth suppression effect that is equivalent to that of prexasertib
18 | COc1cncc(OC[C@@H](C)CN)c1-c1cc(Nc2cnc(C#N)cn2)n[nH]1 [Example 27] | 3.46 nM |  | excellent cell growth suppression effect that is equivalent to that of prexasertib
19 | COc1cncc(OC[C@H](C)CN)c1-c1cc(Nc2cnc(C#N)cn2)n[nH]1 [Example 28] | 0.5 nM | more potent effect of suppressing CHK1 activity than prexasertib | excellent cell growth suppression effect that is equivalent to that of prexasertib
20 | CNCCCOc1cncc(OC)c1-c1cc(Nc2cnc(C#N)cn2)n[nH]1 [Example 31, 5-[(5-{3-methoxy-5-[3-(methylamino)propoxy]pyridin-4-yl}-1H-pyrazol-3-yl)amino]pyrazine-2-carbonitrile] | 0.75 nM |  | excellent cell growth suppression effect that is equivalent to that of prexasertib
21 | COc1cncc(O[C@@H]2CC[C@@H](N)C2)c1-c1cc(Nc2cnc(C#N)cn2)n[nH]1 [Example 32, 5-{[5-(3-{[(1R,3R)-3-aminocyclopentyl]oxy}-5-methoxypyridin-4-yl)-1H-pyrazol-3-yl]amino}pyrazine-2-carbonitrile] |  |  | excellent cell growth suppression effect that is equivalent to that of prexasertib
22 | COc1cncc(O[C@H](C)C2CNC2)c1-c1cc(Nc2cnc(C#N)cn2)n[nH]1 [Example 33, 5-[(5-{3-[(1R)-1-(azetidin-3-yl)ethoxy]-5-methoxypyridin-4-yl}-1H-pyrazol-3-yl)amino]pyrazine-2-carbonitrile] | 0.69 nM |  | excellent cell growth suppression effect that is equivalent to that of prexasertib
23 | COc1cncc(O[C@H](C)C2(O)CNC2)c1-c1cc(Nc2cnc(C#N)cn2)n[nH]1 [Example 34, 5-[(5-{3-[(1R)-1-(3-hydroxyazetidin-3-yl)ethoxy]-5-methoxypyridin-4-yl}-1H-pyrazol-3-yl)amino]pyrazine-2-carbonitrile] | 1.82 nM |  | 
